Reference: paper PMC5218480 (PLoS ONE, 2017)

Test system: MV-4-11 cells
Assay: Gene expression microarray analysis (Affymetrix PrimeView) and GSEA
Format: cell-based, human
Parameters: RFU PODN (11730768_x_at) / Fold change /veh PODN (11730768_x_at) / RFU LINC00158 (11744669_a_at) / Fold change /veh LINC00158 (11744669_a_at) / RFU DUSP10 (11751237_a_at) / Fold change /veh DUSP10 (11751237_a_at) / RFU ID3 (11757404_x_at) / Fold change /veh ID3 (11757404_x_at) / RFU PLEKHG5 (11737974_s_at) / Fold change /veh PLEKHG5 (11737974_s_at) / RFU LRRC4B (11730491_at) / Fold change /veh LRRC4B (11730491_at) / RFU GIMAP4 (11747438_a_at) / Fold change /veh GIMAP4 (11747438_a_at) / RFU KRT8 (11758183_x_at) / Fold change /veh KRT8 (11758183_x_at) / RFU CNN1 (11734310_a_at) / Fold change /veh CNN1 (11734310_a_at) / RFU VPS37D (11726825_at) / Fold change /veh VPS37D (11726825_at) / RFU C10orf10 (11716522_x_at) / Fold change /veh C10orf10 (11716522_x_at) / RFU KIR2DL2 /// KIR2DL4 /// KIR2DL5A /// KIR2DL5B /// KIR2DS1 /// KIR2DS2 /// KIR2DS3 /// KIR2DS4 /// KIR3DL3 /// KIR3DL3 /// KIR3DS1 (11738374_at) / Fold change /veh KIR2DL2 /// KIR2DL4 /// KIR2DL5A /// KIR2DL5B /// KIR2DS1 /// KIR2DS2 /// KIR2DS3 /// KIR2DS4 /// KIR3DL3 /// KIR3DL3 /// KIR3DS1 (11738374_at) / RFU C1QL1 (11718748_at) / Fold change /veh C1QL1 (11718748_at) / RFU TMPRSS4 (11747572_a_at) / Fold change /veh TMPRSS4 (11747572_a_at) / RFU HAMP (11756126_x_at) / Fold change /veh HAMP (11756126_x_at) / RFU RNFT2 (11725882_a_at) / Fold change /veh RNFT2 (11725882_a_at) / RFU NR4A2 (11747474_a_at) / Fold change /veh NR4A2 (11747474_a_at) / RFU ABCC12 (11746883_a_at) / Fold change /veh ABCC12 (11746883_a_at) / RFU TMEM136 (11760407_x_at) / Fold change /veh TMEM136 (11760407_x_at) / RFU CLDN22 /// WWC2 (11732394_at) / Fold change /veh CLDN22 /// WWC2 (11732394_at) / RFU HLA-DPB1 (11760878_x_at) / Fold change /veh HLA-DPB1 (11760878_x_at) / RFU SPINT1 (11716480_a_at) / Fold change /veh SPINT1 (11716480_a_at) / RFU GAP43 (11754022_s_at) / Fold change /veh GAP43 (11754022_s_at) / RFU A4GNT (11735810_at) / Fold change /veh A4GNT (11735810_at) / RFU PRB3 (11715151_x_at) / Fold change /veh PRB3 (11715151_x_at) / RFU TUBB4B (11761932_at) / Fold change /veh TUBB4B (11761932_at) / RFU CAPN14 (11732068_a_at) / Fold change /veh CAPN14 (11732068_a_at) / RFU TMCC2 (11721928_a_at) / Fold change /veh TMCC2 (11721928_a_at) / RFU IRGQ (11745062_a_at) / Fold change /veh IRGQ (11745062_a_at) / RFU FAM174B (11720279_a_at) / Fold change /veh FAM174B (11720279_a_at) / RFU TMPRSS4 (11748680_a_at) / Fold change /veh TMPRSS4 (11748680_a_at) / RFU FAM212B (11763350_a_at) / Fold change /veh FAM212B (11763350_a_at) / RFU PLEKHG5 (11743358_a_at) / Fold change /veh PLEKHG5 (11743358_a_at) / RFU ZSCAN30 (11745921_a_at) / Fold change /veh ZSCAN30 (11745921_a_at) / RFU CMKLR1 (11741424_a_at) / Fold change /veh CMKLR1 (11741424_a_at) / RFU LOC101060620 /// MAPK8IP1 (11723275_at) / Fold change /veh LOC101060620 /// MAPK8IP1 (11723275_at) / RFU SPTSSB (11747773_x_at) / Fold change /veh SPTSSB (11747773_x_at) / RFU PRSS12 (11739890_at) / Fold change /veh PRSS12 (11739890_at) / RFU BIN1 (11741810_x_at) / Fold change /veh BIN1 (11741810_x_at) / RFU WNT11 (11732464_a_at) / Fold change /veh WNT11 (11732464_a_at) / RFU C10orf10 (11716521_a_at) / Fold change /veh C10orf10 (11716521_a_at) / RFU C5orf56 (11738089_at) / Fold change /veh C5orf56 (11738089_at) / RFU CYB561 (11721691_x_at) / Fold change /veh CYB561 (11721691_x_at) / RFU ANKRD19P (11752326_a_at) / Fold change /veh ANKRD19P (11752326_a_at) / RFU OR2T12 /// OR2T33 /// OR2T8 (11738714_s_at) / Fold change /veh OR2T12 /// OR2T33 /// OR2T8 (11738714_s_at) / RFU VCAN (11748164_a_at) / Fold change /veh VCAN (11748164_a_at) / RFU JSRP1 (11732532_at) / Fold change /veh JSRP1 (11732532_at) / RFU KRTAP10-11 (11738290_x_at) / Fold change /veh KRTAP10-11 (11738290_x_at) / RFU MYO3A (11730013_a_at) / Fold change /veh MYO3A (11730013_a_at) / RFU EBF3 (11725865_a_at) / Fold change /veh EBF3 (11725865_a_at) / RFU CAMK2N1 (11719241_x_at) / Fold change /veh CAMK2N1 (11719241_x_at) / RFU C5orf56 (11738088_a_at) / Fold change /veh C5orf56 (11738088_a_at) / RFU OLFML3 (11715873_a_at) / Fold change /veh OLFML3 (11715873_a_at) / RFU LOC100653217 /// NTM (11731650_a_at) / Fold change /veh LOC100653217 /// NTM (11731650_a_at) / RFU MAPK11 (11762145_a_at) / Fold change /veh MAPK11 (11762145_a_at) / RFU FIZ1 (11724087_x_at) / Fold change /veh FIZ1 (11724087_x_at) / RFU OASL (11726364_x_at) / Fold change /veh OASL (11726364_x_at) / RFU SOX15 (11748057_x_at) / Fold change /veh SOX15 (11748057_x_at) / RFU CD79A (11719716_a_at) / Fold change /veh CD79A (11719716_a_at) / RFU HIST1H1D (11736915_at) / Fold change /veh HIST1H1D (11736915_at) / RFU CASKIN2 (11723855_a_at) / Fold change /veh CASKIN2 (11723855_a_at) / RFU LOC730098 (11760151_x_at) / Fold change /veh LOC730098 (11760151_x_at) / RFU OR4N2 (11742367_at) / Fold change /veh OR4N2 (11742367_at) / RFU PRRT2 (11749266_a_at) / Fold change /veh PRRT2 (11749266_a_at) / RFU SNX32 (11753110_a_at) / Fold change /veh SNX32 (11753110_a_at) / RFU CDHR5 (11726645_a_at) / Fold change /veh CDHR5 (11726645_a_at) / RFU RCAN1 (11760418_a_at) / Fold change /veh RCAN1 (11760418_a_at) / RFU FAM167A (11723789_a_at) / Fold change /veh FAM167A (11723789_a_at) / RFU FAM26E (11764081_at) / Fold change /veh FAM26E (11764081_at) / RFU ISYNA1 (11749810_s_at) / Fold change /veh ISYNA1 (11749810_s_at) / RFU ACY1 (11761880_at) / Fold change /veh ACY1 (11761880_at) / RFU 11764098_at / Fold change /veh 11764098_at / RFU SAMD14 (11745864_x_at) / Fold change /veh SAMD14 (11745864_x_at) / RFU NPB (11741838_a_at) / Fold change /veh NPB (11741838_a_at) / RFU TMPRSS6 (11731388_a_at) / Fold change /veh TMPRSS6 (11731388_a_at) / RFU KRTAP10-2 (11738614_at) / Fold change /veh KRTAP10-2 (11738614_at) / RFU ARHGAP8 /// PRR5-ARHGAP8 (11727945_x_at) / Fold change /veh ARHGAP8 /// PRR5-ARHGAP8 (11727945_x_at) / RFU KRTAP5-7 /// NADSYN1 (11734609_at) / Fold change /veh KRTAP5-7 /// NADSYN1 (11734609_at) / RFU RASL12 (11751679_a_at) / Fold change /veh RASL12 (11751679_a_at) / RFU CDKN2B (11736163_a_at) / Fold change /veh CDKN2B (11736163_a_at) / RFU PRF1 (11729649_at) / Fold change /veh PRF1 (11729649_at) / RFU, ZNF638 /// ZNF638-IT1 / Fold change vs veh, ZNF638 /// ZNF638-IT1 / RFU, PANK3 / Fold change vs veh, PANK3 / RFU, SH3YL1 / Fold change vs veh, SH3YL1 / RFU, ZEB2 / Fold change vs veh, ZEB2 / RFU, NRIP1 / Fold change vs veh, NRIP1 / RFU, PTTG1IP / Fold change vs veh, PTTG1IP / RFU, CAPN2 / Fold change vs veh, CAPN2 / RFU, MED14 / Fold change vs veh, MED14 / RFU, SNORA58 / Fold change vs veh, SNORA58 / RFU, C1orf63 / Fold change vs veh, C1orf63 / RFU, LRRFIP1 / Fold change vs veh, LRRFIP1 / RFU, NDUFAF7 / Fold change vs veh, NDUFAF7 / RFU, SLC12A2 / Fold change vs veh, SLC12A2 / RFU, IBTK / Fold change vs veh, IBTK / RFU, ESF1 / Fold change vs veh, ESF1 / Fold change vs veh, TMEM50B / RFU, TAOK1 / Fold change vs veh, TAOK1 / RFU, ACBD3 / Fold change vs veh, ACBD3 / RFU, TMA16 / Fold change vs veh, TMA16 / RFU, RWDD3 / Fold change vs veh, RWDD3 / RFU, BCAT1 / Fold change vs veh, BCAT1 / RFU, EDEM3 / Fold change vs veh, EDEM3 / RFU, TMEM33 / Fold change vs veh, TMEM33 / RFU, WDR75 / Fold change vs veh, WDR75 / RFU, AHCTF1 / Fold change vs veh, AHCTF1 / RFU, TFRC / Fold change vs veh, TFRC / RFU, ZDHHC17 / Fold change vs veh, ZDHHC17 / RFU, NOM1 / Fold change vs veh, NOM1 / RFU, ARL8B / Fold change vs veh, ARL8B / RFU, ZBTB11 / Fold change vs veh, ZBTB11 / RFU, TAMM41 / Fold change vs veh, TAMM41 / RFU, KIAA1704 /// LOC100996395 / Fold change vs veh, KIAA1704 /// LOC100996395 / RFU, ING1 / Fold change vs veh, ING1 / RFU, TRMT61B / Fold change vs veh, TRMT61B / RFU, FUBP3 / Fold change vs veh, FUBP3 / RFU, TP53 / Fold change vs veh, TP53 / RFU, TNKS2 / Fold change vs veh, TNKS2 / RFU, ZFP14 / Fold change vs veh, ZFP14 / RFU, ACTR2 / Fold change vs veh, ACTR2 / RFU, PPP3R1 / Fold change vs veh, PPP3R1 / RFU, PIK3R1 / Fold change vs veh, PIK3R1 / RFU, HNRNPA1 / Fold change vs veh, HNRNPA1 / RFU, RNF170 / Fold change vs veh, RNF170 / RFU, ZNF28 / Fold change vs veh, ZNF28 / RFU, RNGTT / Fold change vs veh, RNGTT / RFU, OGT / Fold change vs veh, OGT / RFU, BRD1 / Fold change vs veh, BRD1 / RFU, MARS / Fold change vs veh, MARS / RFU, ZNF655 / Fold change vs veh, ZNF655 / RFU, FAHD1 / Fold change vs veh, FAHD1 / RFU, BDP1 / Fold change vs veh, BDP1 / RFU, LRRCC1 / Fold change vs veh, LRRCC1 / RFU, ARID1A / Fold change vs veh, ARID1A / RFU, ZNF146 / Fold change vs veh, ZNF146 / RFU, ZNF330 / Fold change vs veh, ZNF330 / RFU, GPN3 / Fold change vs veh, GPN3 / RFU, C9orf123 / Fold change vs veh, C9orf123 / RFU, N4BP2L2 / Fold change vs veh, N4BP2L2 / RFU, ARFIP1 / Fold change vs veh, ARFIP1 / RFU, FAM179B / Fold change vs veh, FAM179B / RFU, BCL10 / Fold change vs veh, BCL10 / RFU, UHRF1BP1L / Fold change vs veh, UHRF1BP1L / RFU, BET1 / Fold change vs veh, BET1 / RFU, CNOT2 / Fold change vs veh, CNOT2 / RFU, ZNF268 / Fold change vs veh, ZNF268 / Fold change vs veh, ZNF507 / RFU, DGCR2 / Fold change vs veh, DGCR2 / RFU, WDSUB1 / Fold change vs veh, WDSUB1 / Fold change vs veh, HSP90B1 /// MIR3652 / RFU, ADSS / Fold change vs veh, ADSS / RFU, GK / Fold change vs veh, GK / RFU, ZNF148 / Fold change vs veh, ZNF148 / RFU, TAF9 / Fold change vs veh, TAF9 / RFU, SLC1A5 / Fold change vs veh, SLC1A5 / RFU, SLMO2 / Fold change vs veh, SLMO2 / RFU, ABCC4 / Fold change vs veh, ABCC4 / RFU, LOC101060439 /// RAP1B / Fold change vs veh, LOC101060439 /// RAP1B / RFU, RFX7 / Fold change vs veh, RFX7 / RFU, GTPBP10 / Fold change vs veh, GTPBP10 / RFU, CNEP1R1 / Fold change vs veh, CNEP1R1 / RFU, BIVM-ERCC5 /// ERCC5 / Fold change vs veh, BIVM-ERCC5 /// ERCC5 / RFU, ILF3 / Fold change vs veh, ILF3 / RFU 11762660_at / Fold change /veh 11762660_at / RFU VCAN (11757783_s_at) / Fold change /veh VCAN (11757783_s_at) / RFU DDX43 (11728927_at) / Fold change /veh DDX43 (11728927_at) / RFU KRT8 (11758188_x_at) / Fold change /veh KRT8 (11758188_x_at) / RFU NKD1 (11759106_at) / Fold change /veh NKD1 (11759106_at) / RFU SRD5A1 (11742802_a_at) / Fold change /veh SRD5A1 (11742802_a_at) / RFU TPSAB1 /// TPSB2 (11721975_s_at) / Fold change /veh TPSAB1 /// TPSB2 (11721975_s_at) / RFU GSTM3 (11746129_a_at) / Fold change /veh GSTM3 (11746129_a_at) / RFU IL23R (11737362_x_at) / Fold change /veh IL23R (11737362_x_at) / RFU TMEM51 (11727254_a_at) / Fold change /veh TMEM51 (11727254_a_at) / RFU PIWIL2 (11732686_x_at) / Fold change /veh PIWIL2 (11732686_x_at) / RFU ORM1 (11744905_x_at) / Fold change /veh ORM1 (11744905_x_at) / RFU CCDC152 (11743942_at) / Fold change /veh CCDC152 (11743942_at) / RFU ECM1 (11717891_a_at) / Fold change /veh ECM1 (11717891_a_at) / RFU IL23R (11748794_a_at) / Fold change /veh IL23R (11748794_a_at) / RFU TNFAIP8L3 (11732012_x_at) / Fold change /veh TNFAIP8L3 (11732012_x_at) / RFU MBOAT4 (11741988_at) / Fold change /veh MBOAT4 (11741988_at) / RFU 11764193_at / Fold change /veh 11764193_at / RFU TMEM53 (11763286_at) / Fold change /veh TMEM53 (11763286_at) / RFU MAGEB2 (11727129_at) / Fold change /veh MAGEB2 (11727129_at) / RFU TMEM200A (11744735_a_at) / Fold change /veh TMEM200A (11744735_a_at) / RFU CCDC152 (11751479_a_at) / Fold change /veh CCDC152 (11751479_a_at) / RFU FAM211A (11726209_a_at) / Fold change /veh FAM211A (11726209_a_at) / RFU RGS16 (11746705_a_at) / Fold change /veh RGS16 (11746705_a_at) / RFU VCAN (11755009_s_at) / Fold change /veh VCAN (11755009_s_at) / RFU RHOB (11743442_s_at) / Fold change /veh RHOB (11743442_s_at) / RFU RGS16 (11720943_a_at) / Fold change /veh RGS16 (11720943_a_at) / RFU RGS16 (11720944_at) / Fold change /veh RGS16 (11720944_at) / RFU, VPS4B / Fold change vs veh, VPS4B / RFU, CREB1 / Fold change vs veh, CREB1 / RFU, DNAJC13 / Fold change vs veh, DNAJC13 / RFU, GNAQ / Fold change vs veh, GNAQ / RFU, CDK5R1 / Fold change vs veh, CDK5R1 / RFU, ZRANB3 / Fold change vs veh, ZRANB3 / RFU, CUL4A / Fold change vs veh, CUL4A / RFU, CCNY / Fold change vs veh, CCNY / RFU, UFL1 / Fold change vs veh, UFL1 / RFU, COG3 / Fold change vs veh, COG3 / RFU, DIAPH2 / Fold change vs veh, DIAPH2 / RFU, SKA2 / Fold change vs veh, SKA2 / RFU, AFF3 / Fold change vs veh, AFF3 / RFU, LMF1 / Fold change vs veh, LMF1 / RFU, IPO11 / Fold change vs veh, IPO11 / RFU, DFFB / Fold change vs veh, DFFB / RFU, FOXP1 / Fold change vs veh, FOXP1 / RFU, CARD8 / Fold change vs veh, CARD8 / RFU, STRN3 / Fold change vs veh, STRN3 / RFU, ADK / Fold change vs veh, ADK / RFU, RASSF2 / Fold change vs veh, RASSF2 / RFU, WIPF1 / Fold change vs veh, WIPF1 / RFU, LARP1B / Fold change vs veh, LARP1B / RFU, RASA1 / Fold change vs veh, RASA1 / RFU, RB1 / Fold change vs veh, RB1 / RFU, PPFIA1 / Fold change vs veh, PPFIA1 / RFU, MAT2A / Fold change vs veh, MAT2A / RFU, CCT5 / Fold change vs veh, CCT5 / RFU, WDR92 / Fold change vs veh, WDR92 / RFU, CUX1 / Fold change vs veh, CUX1 / RFU, TTC7A / Fold change vs veh, TTC7A / RFU, TMEM135 / Fold change vs veh, TMEM135 / RFU, DEPTOR / Fold change vs veh, DEPTOR / RFU, CPM / Fold change vs veh, CPM / RFU, DNAJB6 / Fold change vs veh, DNAJB6 / RFU, CACNA2D3 / Fold change vs veh, CACNA2D3 / RFU, DTX4 / Fold change vs veh, DTX4 / RFU, TFCP2 / Fold change vs veh, TFCP2 / RFU, GMCL1 /// GMCL1P1 / Fold change vs veh, GMCL1 /// GMCL1P1 / RFU, AEBP2 / Fold change vs veh, AEBP2 / RFU, SNHG1 /// SNORD22 /// SNORD25 /// SNORD26 /// SNORD27 /// SNORD28 /// SNORD29 /// SNORD31 / Fold change vs veh, SNHG1 /// SNORD22 /// SNORD25 /// SNORD26 /// SNORD27 /// SNORD28 /// SNORD29 /// SNORD31 / Fold change (Aza/veh), C12orf56 (ProbeSet 11735607_a_at) / Fold change (ACY-1035/veh), C12orf56 (ProbeSet 11735607_a_at) / Fold change (Aza/veh), FGFR1OP (ProbeSet 11751329_s_at) / Fold change (ACY-1035/veh), FGFR1OP (ProbeSet 11751329_s_at) / Fold change (Aza/veh), VPS36 (ProbeSet 11739960_a_at) / Fold change (ACY-1035/veh), VPS36 (ProbeSet 11739960_a_at) / RFU SYPL1 (11715823_x_at) / Fold change /veh SYPL1 (11715823_x_at) / RFU IGFBP7 (11715501_s_at) / Fold change /veh IGFBP7 (11715501_s_at) / RFU REEP3 (11722064_at) / Fold change /veh REEP3 (11722064_at) / RFU IGLL1 (11728026_x_at) / Fold change /veh IGLL1 (11728026_x_at): dose or concentration left out as unconfirmed
Details: ProbeSet 11759095_at; LIST D

## Nc1ncn([C@@H]2O[C@H](CO)[C@@H](O)[C@H]2O)c(=O)n1 [azacitidine]
  RFU, GNAQ: 765.32 RFU
